According to ChEMBL document CHEMBL3751789, “Synthesis, isomerization and biological activity of novel 2-selenohydantoin derivatives” (Bioorg Med Chem, 2016):
The source made the active and inactive calls. The calls are words filed in the database; no cut-off is given here.

What was measured:
[1] = Antioxidant activity assessed as electrochemical reduction using glass carbon electrode by cyclic voltammetric analysis; format: physicochemical
[2] = Antioxidant activity assessed as electrochemical reduction using Au electrode by cyclic voltammetric analysis; format: physicochemical
[3] = Antioxidant activity assessed as oxidation potential using glass carbon electrode by cyclic voltammetric analysis; format: physicochemical
[4] = Antioxidant activity assessed as oxidation potential using Au electrode by cyclic voltammetric analysis; format: physicochemical
[5] = Antioxidant activity assessed as peroxide reduction rate at 80 uM using H2O2/GSH as substrate/hydrogen-donar by GPx-based assay; format: physicochemical
[6] = Antioxidant activity assessed as peroxide reduction rate at 80 uM using H2O2/4-aminoantipyrine as substrate/hydrogen-donar; format: physicochemical
[7] = Antioxidant activity assessed as peroxide reduction rate at 80 uM using H2O2/pyrocatechol as substrate/hydrogen-donar; format: physicochemical
[8] = Antioxidant activity assessed as peroxide reduction rate at 80 uM using H2O2/pyrogallol as substrate/hydrogen-donar by ABTS-based assay; format: physicochemical
[9] = Antioxidant activity assessed as peroxide reduction rate at 80 uM using H2O2/guaiacol as substrate/hydrogen-donar by ABTS-based assay; format: physicochemical
HepG2 = assay: Cytotoxicity against human HepG2 cells after 48 hrs by MTT assay; format: functional
HEK293 [10] = assay: (§1) Cytotoxicity against HEK293 cells after 48 hrs by MTT assay; format: cell-based; details: human, hek293, 48 h
SiHa = assay: Cytotoxicity against human SiHa cells after 48 hrs by MTT assay; format: functional
MCF7 = assay: Cytotoxicity against human MCF7 cells after 48 hrs by MTT assay; format: functional
[11] = as §1; format: cell-based; details: human, HEK293 cells
HEK293 [12] = assay: Selectivity index, ratio CC50 for HEK293 cells to CC50 for human HepG2 cells; format: functional
HEK293 [13] = assay: Selectivity index, ratio CC50 for HEK293 cells to CC50 for human SiHa cells; format: functional
HEK293 [14] = assay: Selectivity index, ratio CC50 for HEK293 cells to CC50 for human MCF7 cells; format: functional

For `O=C1/C(=C/c2ccccn2)NC(=[Se])N1C1CCCCC1`, the Activity [1] was -2.2 V, the Activity [2] was -1.81 V and the Activity [3] was 1.16 V. For the same compound, the Activity [4] was 1.23 V, the Activity [5] was 138 µM/min and the Activity [6] was 3 µM/min. The Activity [7] was 0 µM/min, the Activity [8] was 0 µM/min and the Activity [9] was 0 µM/min.

Compound `O=C1/C(=C/c2ccccn2)N=C([Se]CC[Se]C2=N/C(=C\c3ccccn3)C(=O)N2C2CCCCC2)N1C1CCCCC1` has an Activity [1] of -2.61 V, an Activity [2] of -1.86 V and an Activity [3] of 1.46 V. It also gave an Activity [4] of 1.28 V.

For `C=CCN1C(=O)/C(=C/c2ccccn2)NC1=S`, the CC50 (HepG2) was “inactive”, the CC50 (HEK293 [10]) was “Not Active” and the CC50 (SiHa) was “inactive”. The CC50 (MCF7) was “inactive”, the Activity [5] was 0 µM/min and the Activity [6] was 0 µM/min. It also gave an Activity [7] of 0 µM/min, an Activity [8] of 0 µM/min and an Activity [9] of 0 µM/min.

`CCOC(=O)CNC(=[Se])NC1CCCCC1` showed an Activity [5] of 82 µM/min, an Activity [6] of 0 µM/min and an Activity [7] of 1.3 µM/min. The Activity [8] was 0 µM/min and the Activity [9] was 0 µM/min.

In the case of `C=CCN1C(=O)/C(=C/c2ccccn2)N=C1SC`, the CC50 (HepG2; HepG2, 48 h) is reported as 56.7 µM, the CC50 (HEK293 [10]) is reported as “Not Active” and the CC50 (SiHa) is reported as 102 µM. The CC50 (MCF7) was “inactive”.

In the case of `C=CCN1C(=O)/C(=C/c2ccccn2)N=C1[Se]C`, the CC50 (HepG2; HepG2, 48 h) is reported as 6.62 µM, the CC50 at 48 h [11] is reported as 12.6 µM and the CC50 (SiHa) is reported as 3.66 µM. For the same compound, the CC50 (MCF7; MCF7, 48 h) was 7.18 µM, the Activity [5] was 0 µM/min and the Activity [6] was 0 µM/min. For the same compound, the Activity [7] was 0 µM/min, the Activity [8] was 0 µM/min and the “Selectivity Index” value (HEK293 [12]) was over 2. The “Selectivity Index” value (HEK293 [13]) was over 2, the “Selectivity Index” value (HEK293 [14]) was over 2 and the Activity [9] was 0 µM/min.

Compound `C=CCN1C(=O)CNC1=S` has a CC50 (HepG2; HepG2, 48 h) of 40.7 µM, a CC50 at 48 h [11] of 58.2 µM and a CC50 (SiHa) of 42.4 µM. The CC50 (MCF7; MCF7, 48 h) was 35.2 µM.

For `C=CCN1C(=O)/C(=C/c2ccccn2)NC1=[Se]`, the CC50 (HepG2; HepG2, 48 h) was 29.8 µM, the CC50 at 48 h [11] was 42.6 µM and the CC50 (SiHa) was 23.6 µM. The CC50 (MCF7; MCF7, 48 h) was 31.2 µM, the Activity [1] was -2.15 V and the Activity [2] was -1.79 V. For the same compound, the Activity [3] was 1.2 V, the Activity [4] was 1.21 V and the Activity [5] was 79 µM/min. It also gave an Activity [6] of 0 µM/min, an Activity [7] of 0 µM/min and an Activity [8] of 0 µM/min. For the same compound, the “Selectivity Index” value (HEK293 [12]) was over 2, the “Selectivity Index” value (HEK293 [13]) was over 2 and the “Selectivity Index” value (HEK293 [14]) was over 2. For the same compound, the Activity [9] was 0 µM/min.

`O=c1c2ccccc2[se]n1-c1ccccc1` [EBSELEN] gave an Activity [5] of 140 µM/min.

Work on `C=CCN1C(=O)CNC1=[Se]` yielded a CC50 (HepG2; HepG2, 48 h) of 16.4 µM, a CC50 at 48 h [11] of 10.3 µM and a CC50 (SiHa) of 12.7 µM. The CC50 (MCF7; MCF7, 48 h) was 44.1 µM.
